In patent publication US9133104B2 (Chroma Therapeutics Ltd., priority 2005, dated 2015):

Tests used:
[1] = target: T1, histone deacetylase activity (HeLa nuclear extract); experiment: HDAC fluorescent activity assay (Biomol Fluor de Lys), HeLa nuclear extract; type: biochemical; settings: Fluor de Lys substrate, IC50 range
T1 construct: Histone deacetylase activity from crude nuclear extract derived from HeLa cells was used for screening
Procedure: The ability of compounds to inhibit histone deacetylase activities was measured using the commercially available HDAC fluorescent activity assay from Biomol. In brief, the Fluor de Lys™ substrate, a lysine with an epsilon-amino acetylation, is incubated with the source of histone deacetylase activity (HeLa nuclear extract) in the presence or absence of inhibitor. Deacetylation of the substrate sensitises the substrate to Fluor de Lys™ developer, which generates a fluorophore. Thus, incubation of the substrate with a source of HDAC activity results in an increase in signal that is diminished in the presence of an HDAC inhibitor.
Data are expressed as a percentage of the control, measured in the absence of inhibitor, with background signal being subtracted from all samples, as follows:— % activity=((S^i−B)/(S^o−B))×100 where S^i is the signal in the presence of substrate, enzyme and inhibitor, S^o is the signal in the presence of substrate, enzyme and the vehicle in which the inhibitor is dissolved, and B is the background signal measured in the absence of enzyme.
IC50 values were determined by non-linear regression analysis, after fitting the results of eight data points to the equation for sigmoidal dose response with variable slope (% activity against log concentration of compound), using Graphpad Prism software.
Histone deacetylase activity from crude nuclear extract derived from HeLa cells was used for screening. The preparation, purchased from 4C (Seneffe, Belgium), was prepared from HeLa cells harvested whilst in exponential growth phase. The nuclear extract is prepared according to Dignam JD1983 Nucl. Acid. Res. 11, 1475-1489, snap frozen in liquid nitrogen and stored at −80° C. The final buffer composition was 20 mM Hepes, 100 mM KCl, 0.2 mM EDTA, 0.5 mM DTT, 0.2 mM PMSF and 20% (v/v) glycerol.

[2] = system: Hela cancer cell line; experiment: Cell inhibition assay (SRB cell viability), Hela; type: cell-based; settings: 72 h, Hela cells, IC50 range
Procedure: (§1) The corresponding cancer cell lines (Hela, U937 and HUT) growing in log phase were harvested and seeded at 1000 cells/well (200 ul final volume) into 96-well tissue culture plates. Following 24 h of cell growth cells were treated with compounds (final concentration of 20 uM). Plates were then re-incubated for a further 72 h before a sulphorhodamine B (SRB) cell viability assay was conducted according to Skehan 1990 J Natl Canc Inst 82, 1107-1112.
(§2) Data were expressed as a percentage inhibition of the control, measured in the absence of inhibitor, as follows:— % inhibition=100−((S^i/S^o)×100) where S^i is the signal in the presence of inhibitor and S^o is the signal in the presence of DMSO. IC50 values were determined by non-linear regression analysis, after fitting the results of eight data points to the equation for sigmoidal dose response with variable slope (% activity against log concentration of compound), using Graphpad Prism software. […] NT=Not tested

[3] = system: U937 cancer cell line; experiment: Cell inhibition assay (SRB cell viability), U937; type: cell-based; settings: 72 h, IC50 range
Procedure: as §1, §2

[4] = system: HUT cancer cell line; experiment: Cell inhibition assay (SRB cell viability), HUT; type: cell-based; settings: HUT cells, 72 h, IC50 range
Procedure: as §1, §2

[5] = Homo sapiens, U-937, U937 cells

| SMILES | IC50 [1] [nM] | IC50 ([2]; Homo sapiens, HeLa) [nM] | IC50 [3, 5] [nM] | IC50 [4] [nM] | IC50 [2] [nM] | IC50 ([3]; U937 cells) [nM] |
| --- | --- | --- | --- | --- | --- | --- |
| O=C(CCCCCCC(=O)Nc1cccc(C(=O)N[C@H](C(=O)OC2CCCC2)c2ccccc2)c1)NO [Compound 60, (S)-[3-(7-Hydroxycarbamoyl-heptanoylamino)-benzoylamino]-phenyl-acetic acid cyclopentyl ester] | 101 to 1000 | 330 to 3300 | 330 to 3300 | 330 to 3300 |  |  |
| O=C(CCCCCCC(=O)Nc1ccc(CN[C@H](C(=O)OC2CCCC2)c2ccccc2)cc1)NO [Compound 20, (S)-[4-(7-Hydroxycarbamoyl-heptanoylamino)-benzylamino]-phenyl-acetic acid cyclopentyl ester] | 101 to 1000 | 330 to 3300 | < 330 | 330 to 3300 |  |  |
| O=C(CCCCCCC(=O)Nc1cccc(OCCCN[C@H](C(=O)OC2CCCC2)c2ccccc2)c1)NO [Compound 77, (S)-{3-[3-(7-Hydroxycarbamoyl-heptanoylamino)-phenoxy]-propylamino}-phenyl-acetic acid cyclopentyl ester] | < 100 | 330 to 3300 | < 330 | < 330 |  |  |
| O=C(CCCCCCC(=O)N1Cc2[nH]c3ccccc3c2C[C@@H]1C(=O)N[C@@H](Cc1ccccc1)C(=O)O)NO [Compound 6, (S)-2-{[(R)-2-(7-Hydroxycarbamoyl-heptanoyl)-2,3,4,9-tetrahydro-1H-beta-carboline-3-carbonyl]-amino}-3-phenyl-propionic acid] | < 100 | > 3300 | > 3300 | > 3300 |  |  |
| CCOC(=O)[C@H](Cc1ccccc1)NCc1cncc(NC(=O)CCCCCCC(=O)NO)c1 [Compound 66, (S)-2-{[5-(7-Hydroxycarbamoyl-heptanoylamino)-pyridin-3-ylmethyl]-amino}-3-phenyl-propionic acid ethyl ester] | 101 to 1000 | > 3300 | > 3300 | > 3300 |  |  |
| O=C(NO)c1cc2ccc(CNCc3ccc(CN[C@@H](Cc4ccc(O)cc4)C(=O)OC4CCCC4)cc3)cc2s1 [Compound 106, (S)-2-(4-{[(2-Hydroxycarbamoyl-benzo[b]thiophen-6-ylmethyl)-amino]-methyl}-benzylamino)-3-(4-hydroxy-phenyl)-propionic acid cyclopentyl ester] | < 100 | 330 to 3300 | < 330 | < 330 |  |  |
| CCOC(=O)[C@H](Cc1ccccc1)NCc1cccc(NC(=O)CCCCCCC(=O)NO)c1 [Compound 26, (S)-2-[3-(7-Hydroxycarbamoyl-heptanoylamino)-benzylamino]-3-phenyl-propionic acid ethyl ester] | < 100 | 330 to 3300 | 330 to 3300 | 330 to 3300 |  |  |
| O=C(CCCCCCC(=O)Nc1cccc(CN[C@@H](CCc2ccccc2)C(=O)OC2CCCC2)c1)NO [Compound 31, (S)-2-[3-(7-Hydroxycarbamoyl-heptanoylamino)-benzylamino]-4-phenyl-butyric acid cyclopentyl ester] | 101 to 1000 | 330 to 3300 | < 330 | 330 to 3300 |  |  |
| COc1ccc2[nH]c3c(c2c1)CCN(C(=O)CCCCCCC(=O)NO)C3C(=O)N[C@H](C(=O)OC1CCCC1)c1ccccc1 (stereo partly drawn) [Compound 13, (S)-{[2-(7-Hydroxycarbamoyl-heptanoyl)-6-methoxy-2,3,4,9-tetrahydro-1H-beta-carboline-1-carbonyl]amino}-phenyl-acetic acid cyclopentyl ester] | 101 to 1000 |  |  | 330 to 3300 | > 3300 | 330 to 3300 |
| O=C(CCCCCCC(=O)N1CCCC1C(=O)N[C@H](C(=O)OC1CCCC1)c1ccccc1)NO (stereo partly drawn) [Compound 53, (S)-{[1-(7-Hydroxycarbamoyl-heptanoyl)-pyrrolidine-2-carbonyl]-amino}-phenyl-acetic acid cyclopentyl ester] | > 1000 | > 3300 | > 3300 | > 3300 |  |  |
| O=C(CCCCCCC(=O)Nc1ccc(CN[C@@H](Cc2ccccc2)C(=O)OC2CCCC2)cc1)NO [Compound 91, (S)-2-[4-(7-Hydroxycarbamoyl-heptanoylamino)-benzylamino]-3-phenyl-propionic acid cyclopentyl ester] | 101 to 1000 | > 3300 | 330 to 3300 | 330 to 3300 |  |  |
| O=C(NO)c1cc2ccc(CNCc3ccc(CN[C@@H](Cc4ccccc4)C(=O)OC4CCCC4)cc3)cc2s1 [Compound 104, (S)-2-(4-{[(2-Hydroxycarbamoyl-benzo[b]thiophen-6-ylmethyl)-amino]-methyl}-benzylamino)-3-phenyl-propionic acid cyclopentyl ester] | 101 to 1000 | 330 to 3300 | < 330 | 330 to 3300 |  |  |
| O=C(CCCCCCC(=O)N1CCc2ccc(C(=O)N[C@H](C(=O)O)c3ccccc3)cc2C1)NO [Compound 16, (S)-{[2-(7-Hydroxycarbamoyl-heptanoyl)-1,2,3,4-tetrahydro-isoquinoline-7-carbonyl]-amino}-phenyl-acetic acid] | > 1000 | > 3300 | > 3300 | > 3300 |  |  |
| CC(C)(C)OC(=O)[C@@H](NC(=O)[C@H]1Cc2c([nH]c3ccccc23)CN1C(=O)CCCCCCC(=O)NO)c1ccccc1 [Compound 19, (S)-{[(R)-2-(7-Hydroxycarbamoyl-heptanoyl)-2,3,4,9-tetrahydro-1H-beta-carboline-3-carbonyl]-amino}-phenyl-acetic acid tert-butyl ester] | 101 to 1000 | 330 to 3300 | 330 to 3300 | 330 to 3300 |  |  |
| CCOC(=O)[C@H](CC(C)C)NC(=O)[C@@H]1Cc2ccccc2CN1C(=O)CCCCCCC(=O)NO [Compound 50, (S)-2-{[(S)-2-(7-Hydroxycarbamoyl-heptanoyl)-1,2,3,4-tetrahydro-isoquinoline-3-carbonyl]-amino}-4-methyl-pentanoic acid ethyl ester] | > 1000 | > 3300 | 330 to 3300 | 330 to 3300 |  |  |
| O=C(CCCCCCC(=O)N1Cc2[nH]c3ccccc3c2C[C@@H]1C(=O)N[C@H](C(=O)OC1CCCC1)c1ccccc1)NO [Compound 1, (S)-{[(R)-2-(7-Hydroxycarbamoyl-heptanoyl)-2,3,4,9-tetrahydro-1H-beta-carboline-3-carbonyl]-amino}-phenyl-acetic acid cyclopentyl ester] | 101 to 1000 | > 3300 | 330 to 3300 | 330 to 3300 |  |  |
| O=C(CCCCCCC(=O)Nc1ccc(C(=O)N[C@H](C(=O)O)c2ccccc2)cc1)NO [Compound 18, (S)-[4-(7-Hydroxycarbamoyl-heptanoylamino)-benzoylamino]-phenyl-acetic acid] | 101 to 1000 | > 3300 | > 3300 | > 3300 |  |  |
| O=C(CCCCCCC(=O)Nc1cccc(CN[C@@H](Cc2ccccc2)C(=O)OC2CCCC2)c1)NO [Compound 28, (S)-2-[3-(7-Hydroxycarbamoyl-heptanoylamino)-benzylamino]-3-phenyl-propionic acid cyclopentyl ester] | 101 to 1000 | 330 to 3300 | 330 to 3300 | 330 to 3300 |  |  |
| CC(C)C[C@H](NCc1ccc(CNCc2ccc3cc(C(=O)NO)sc3c2)cc1)C(=O)OC1CCCC1 [Compound 122] | < 100 | 330 to 3300 | < 330 | 330 to 3300 |  |  |
| O=C(CCCCCCC(=O)N1CCc2c([nH]c3ccccc23)C1CN[C@H](C(=O)OC1CCCC1)c1ccccc1)NO (stereo partly drawn) [Compound 42, (S)-{[2-(7-Hydroxycarbamoyl-heptanoyl)-2,3,4,9-tetrahydro-1H-beta-carbolin-1-ylmethyl]-amino}-phenyl-acetic acid cyclopentyl ester] | > 1000 | 330 to 3300 | 330 to 3300 | 330 to 3300 |  |  |
| O=C(CCCCCCC(=O)N1CCc2c([nH]c3ccc(OCC(=O)N[C@H](C(=O)OC4CCCC4)c4ccccc4)cc23)C1)NO [Compound 24, (S)-{2-[2-(7-Hydroxycarbamoyl-heptanoyl)-2,3,4,9-tetrahydro-1H-beta-carbolin-6-yloxy]-acetylamino}-phenyl-acetic acid cyclopentyl ester] | 101 to 1000 | > 3300 | > 3300 | 330 to 3300 |  |  |
